These results are taken from patent US12435046B2, “Alkynyl quinazoline compounds” (Black Diamond Therapeutics, Inc., priority 2019, dated 2025).

Type in all cases: cell-based
Common to all, as to conditions: Table A; BaF3 cells, 3 days

Assay [1] concerns the target T1, HER2 YVMA (Homo sapiens, UniProt P04626, INS775YVMA).
T1 construct: expressed in transfected cells; host or cells: BaF3 (murine pro-B) cells
Description: BaF3 cell proliferation assay (CellTiterGlo), HER2 YVMA. On the technique in general: In ATP-based viability assays light output follows the ATP content of the culture.

Assay [2] addresses T2, EGFR wt (Homo sapiens, UniProt P00533).
T2 construct: expressed in transfected cells; host or cells: BaF3 (murine pro-B) cells, retroviral transduction with pMXs-IRES-Blasticidin
Description: BaF3 cell proliferation assay (CellTiterGlo), EGFR wt. On the procedure: (§1) Retroviral Production: EGFR mutants were subcloned into pMXs-IRES-Blasticidin (RTV-016, Cell Biolabs, San Diego, CA). Retroviral expression vector retrovirus was produced by transient transfection of HEK 293T cells with the retroviral EGFR mutant expression vector pMXs-IRES-Blasticidin (RTV-016, Cell Biolabs), pCMV-Gag-Pol vector and pCMV-VSV-G-Envelope vector. Briefly, HEK 293T/17 cells were plated in 100 mm collagen coated plate (354450, Corning Life Sciences, Tewksbury, MA) (4×10^5 per plate) and incubated overnight. The next day, retroviral plasmids (3 ng of EGFR mutant, 1.0 ng of pCMV-Gag-Pol and 0.5 ng pCMV-VSV-G) were mixed in 500 n1 of Optimem (31985, Life Technologies). The mixture was incubated at room temperature for 5 min and then added to Optimem containing transfection reagent Lipofectamine (11668, Invitrogen) and incubated for 20 minutes. Mixture was then added dropwise to HEK 293T cells. The next day the medium was replaced with fresh culture medium and retrovirus was harvested @ 24 and 48 hrs.
(§2) Generation of EGFR mutant stable cell lines: BaF3 cells (1.5E5 cells) were infected with 1 ml of viral supernatant supplemented with 8 ng/ml polybrene by centrifuging for 30 min at 1000 rpm. Cells were placed in a 37° C. incubator overnight. Cells were then spun for 5 minutes to pellet the cells. Supernatant was removed and cells re-infected a fresh 1 ml of viral supernatant supplemented with 8 ng/ml polybrene by centrifuging for 30 min at 1000 rpm. Cells were placed in 37° C. incubator overnight. Cells were then maintained in RPMI containing 10% Heat Inactivated FBS, 2% L-glutamine containing 10 ng/ml IL-3. After 48 hours cells were selected for retroviral infection in 10 […] for one week. Blasticidin resistant populations were washed twice in phosphate buffered saline before plating in media lacking IL-3 to select for IL-3 independent growth.
(§3) Assay for cell proliferation: BaF3 cell lines were resuspended at 1.3E5 c/ml in RPMI containing 10% Heat Inactivated FBS, 2% L-glutamine and 1% Pen/Strep and dispensed in triplicate (17.5E4 c/well) into 96 well plates. To determine the effect of drug on cell proliferation, cells incubated for 3 days in the presence of vehicle control or test drug at varying concentrations. Inhibition of cell growth was determined by luminescent quantification of intracellular ATP content using CellTiterGlo (Promega), according to the protocol provided by the manufacturer. Comparison of cell number on day 0 versus 72 hours post drug treatment was used to plot dose-response curves. The number of viable cells was determined and normalized to vehicle-treated controls. Inhibition of proliferation, relative to vehicle-treated controls was expressed as a fraction of 1 and graphed using PRISM® software (Graphpad Software, San Diego, CA). EC50 values were determined with the same application.

Assay [3] has as its target T3, HER2 S310F (Homo sapiens, UniProt P04626, S310F).
T3 construct: expressed in transfected cells; host or cells: BaF3 (murine pro-B) cells
Description: BaF3 cell proliferation assay (CellTiterGlo), HER2 S310F.

For assay [4], the target named is T4, EGFR V3 (Homo sapiens, UniProt P00533, DELINS30-297G).
T4 construct: expressed in transfected cells; host or cells: BaF3 (murine pro-B) cells, retroviral transduction with pMXs-IRES-Blasticidin
T4 sequence (P00533 with tags, fused parts or gaps DELINS30-297G): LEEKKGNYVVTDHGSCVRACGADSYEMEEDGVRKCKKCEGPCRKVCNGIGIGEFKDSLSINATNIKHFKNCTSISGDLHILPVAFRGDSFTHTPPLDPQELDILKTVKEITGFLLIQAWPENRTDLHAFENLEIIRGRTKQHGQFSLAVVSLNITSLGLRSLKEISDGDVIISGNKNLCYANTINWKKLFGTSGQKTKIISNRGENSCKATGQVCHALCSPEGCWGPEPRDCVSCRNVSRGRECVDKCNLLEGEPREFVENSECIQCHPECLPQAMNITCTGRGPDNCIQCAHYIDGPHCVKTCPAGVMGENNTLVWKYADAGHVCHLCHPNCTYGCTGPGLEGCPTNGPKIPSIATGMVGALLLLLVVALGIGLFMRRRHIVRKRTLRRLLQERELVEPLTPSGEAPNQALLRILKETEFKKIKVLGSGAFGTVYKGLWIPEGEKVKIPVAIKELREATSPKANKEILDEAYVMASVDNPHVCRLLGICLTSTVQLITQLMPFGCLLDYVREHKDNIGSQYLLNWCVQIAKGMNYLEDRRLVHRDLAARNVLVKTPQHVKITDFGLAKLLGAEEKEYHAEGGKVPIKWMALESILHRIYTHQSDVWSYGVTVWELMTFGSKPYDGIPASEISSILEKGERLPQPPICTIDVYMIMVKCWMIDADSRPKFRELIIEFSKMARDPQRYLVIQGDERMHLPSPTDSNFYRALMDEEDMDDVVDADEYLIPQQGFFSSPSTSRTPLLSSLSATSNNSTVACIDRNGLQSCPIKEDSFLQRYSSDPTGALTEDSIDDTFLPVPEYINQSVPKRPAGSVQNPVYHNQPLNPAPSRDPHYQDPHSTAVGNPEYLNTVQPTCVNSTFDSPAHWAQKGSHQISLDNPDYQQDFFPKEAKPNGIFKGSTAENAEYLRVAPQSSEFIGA
Description: BaF3 cell proliferation assay (CellTiterGlo), EGFR V3. On the procedure: as §1, §2, §3

Bounds are passed on as bounds.

T2 sequence (P00533 25-1210): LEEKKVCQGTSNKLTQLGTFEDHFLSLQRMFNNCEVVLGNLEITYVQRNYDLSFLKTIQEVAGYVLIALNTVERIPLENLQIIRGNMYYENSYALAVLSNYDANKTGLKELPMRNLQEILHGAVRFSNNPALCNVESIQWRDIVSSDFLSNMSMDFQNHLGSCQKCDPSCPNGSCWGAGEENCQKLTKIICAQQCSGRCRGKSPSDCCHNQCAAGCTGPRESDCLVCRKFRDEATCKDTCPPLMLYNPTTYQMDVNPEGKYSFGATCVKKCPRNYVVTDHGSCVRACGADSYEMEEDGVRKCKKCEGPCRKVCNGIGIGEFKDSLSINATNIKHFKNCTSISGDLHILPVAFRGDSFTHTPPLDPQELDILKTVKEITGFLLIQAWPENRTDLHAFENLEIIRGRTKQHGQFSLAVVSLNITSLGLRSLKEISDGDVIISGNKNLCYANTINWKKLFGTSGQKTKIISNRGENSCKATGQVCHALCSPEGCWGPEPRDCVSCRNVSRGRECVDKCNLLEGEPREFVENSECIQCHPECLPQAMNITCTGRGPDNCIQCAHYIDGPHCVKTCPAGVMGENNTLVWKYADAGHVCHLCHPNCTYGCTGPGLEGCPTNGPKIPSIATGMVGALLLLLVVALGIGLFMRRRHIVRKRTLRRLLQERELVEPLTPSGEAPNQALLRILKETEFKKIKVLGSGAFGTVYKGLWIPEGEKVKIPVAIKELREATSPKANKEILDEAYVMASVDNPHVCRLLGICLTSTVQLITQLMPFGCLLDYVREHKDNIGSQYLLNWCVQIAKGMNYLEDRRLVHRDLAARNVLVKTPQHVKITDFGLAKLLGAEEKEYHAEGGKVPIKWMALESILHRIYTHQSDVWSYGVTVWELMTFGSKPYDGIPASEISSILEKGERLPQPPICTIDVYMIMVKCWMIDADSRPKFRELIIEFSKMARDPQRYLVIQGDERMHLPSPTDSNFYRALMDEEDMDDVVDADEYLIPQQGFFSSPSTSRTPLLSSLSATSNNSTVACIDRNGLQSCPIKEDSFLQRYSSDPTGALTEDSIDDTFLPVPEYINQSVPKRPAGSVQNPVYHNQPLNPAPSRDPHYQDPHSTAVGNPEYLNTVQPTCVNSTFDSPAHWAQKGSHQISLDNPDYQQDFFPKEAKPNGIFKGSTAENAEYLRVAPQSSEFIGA
T3 sequence (P04626 23-1255 S310F): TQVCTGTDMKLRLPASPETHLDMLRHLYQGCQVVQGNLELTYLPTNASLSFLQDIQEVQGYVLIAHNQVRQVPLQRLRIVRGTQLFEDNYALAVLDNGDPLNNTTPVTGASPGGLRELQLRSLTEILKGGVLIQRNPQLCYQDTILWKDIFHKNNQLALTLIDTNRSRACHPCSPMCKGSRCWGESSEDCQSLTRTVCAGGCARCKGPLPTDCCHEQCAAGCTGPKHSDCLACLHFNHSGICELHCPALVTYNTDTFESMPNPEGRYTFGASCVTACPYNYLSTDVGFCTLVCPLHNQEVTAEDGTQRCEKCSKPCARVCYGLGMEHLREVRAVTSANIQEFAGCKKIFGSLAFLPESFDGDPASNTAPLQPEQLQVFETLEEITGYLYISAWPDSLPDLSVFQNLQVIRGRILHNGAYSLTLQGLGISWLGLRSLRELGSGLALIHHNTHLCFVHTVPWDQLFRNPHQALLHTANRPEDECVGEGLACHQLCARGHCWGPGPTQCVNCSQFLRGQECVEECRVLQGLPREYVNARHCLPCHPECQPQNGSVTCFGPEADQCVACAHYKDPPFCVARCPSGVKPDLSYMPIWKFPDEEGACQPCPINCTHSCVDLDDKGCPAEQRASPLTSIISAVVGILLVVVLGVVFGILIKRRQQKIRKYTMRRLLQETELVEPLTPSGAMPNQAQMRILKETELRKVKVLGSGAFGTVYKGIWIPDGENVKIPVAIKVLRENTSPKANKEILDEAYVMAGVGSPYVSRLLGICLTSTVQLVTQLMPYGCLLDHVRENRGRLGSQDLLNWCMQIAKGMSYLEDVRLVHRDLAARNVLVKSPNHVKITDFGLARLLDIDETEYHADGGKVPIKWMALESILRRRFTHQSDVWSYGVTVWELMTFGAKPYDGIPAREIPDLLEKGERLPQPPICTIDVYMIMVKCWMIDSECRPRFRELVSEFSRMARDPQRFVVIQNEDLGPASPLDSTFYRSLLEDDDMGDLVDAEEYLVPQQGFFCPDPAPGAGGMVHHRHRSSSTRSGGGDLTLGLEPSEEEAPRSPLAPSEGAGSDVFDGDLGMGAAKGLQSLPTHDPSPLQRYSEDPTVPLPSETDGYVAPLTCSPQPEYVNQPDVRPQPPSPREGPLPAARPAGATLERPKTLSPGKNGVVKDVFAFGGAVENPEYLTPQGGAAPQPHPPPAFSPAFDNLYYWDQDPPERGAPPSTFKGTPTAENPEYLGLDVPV
T1 sequence (P04626 with tags, fused parts or gaps INS775YVMA): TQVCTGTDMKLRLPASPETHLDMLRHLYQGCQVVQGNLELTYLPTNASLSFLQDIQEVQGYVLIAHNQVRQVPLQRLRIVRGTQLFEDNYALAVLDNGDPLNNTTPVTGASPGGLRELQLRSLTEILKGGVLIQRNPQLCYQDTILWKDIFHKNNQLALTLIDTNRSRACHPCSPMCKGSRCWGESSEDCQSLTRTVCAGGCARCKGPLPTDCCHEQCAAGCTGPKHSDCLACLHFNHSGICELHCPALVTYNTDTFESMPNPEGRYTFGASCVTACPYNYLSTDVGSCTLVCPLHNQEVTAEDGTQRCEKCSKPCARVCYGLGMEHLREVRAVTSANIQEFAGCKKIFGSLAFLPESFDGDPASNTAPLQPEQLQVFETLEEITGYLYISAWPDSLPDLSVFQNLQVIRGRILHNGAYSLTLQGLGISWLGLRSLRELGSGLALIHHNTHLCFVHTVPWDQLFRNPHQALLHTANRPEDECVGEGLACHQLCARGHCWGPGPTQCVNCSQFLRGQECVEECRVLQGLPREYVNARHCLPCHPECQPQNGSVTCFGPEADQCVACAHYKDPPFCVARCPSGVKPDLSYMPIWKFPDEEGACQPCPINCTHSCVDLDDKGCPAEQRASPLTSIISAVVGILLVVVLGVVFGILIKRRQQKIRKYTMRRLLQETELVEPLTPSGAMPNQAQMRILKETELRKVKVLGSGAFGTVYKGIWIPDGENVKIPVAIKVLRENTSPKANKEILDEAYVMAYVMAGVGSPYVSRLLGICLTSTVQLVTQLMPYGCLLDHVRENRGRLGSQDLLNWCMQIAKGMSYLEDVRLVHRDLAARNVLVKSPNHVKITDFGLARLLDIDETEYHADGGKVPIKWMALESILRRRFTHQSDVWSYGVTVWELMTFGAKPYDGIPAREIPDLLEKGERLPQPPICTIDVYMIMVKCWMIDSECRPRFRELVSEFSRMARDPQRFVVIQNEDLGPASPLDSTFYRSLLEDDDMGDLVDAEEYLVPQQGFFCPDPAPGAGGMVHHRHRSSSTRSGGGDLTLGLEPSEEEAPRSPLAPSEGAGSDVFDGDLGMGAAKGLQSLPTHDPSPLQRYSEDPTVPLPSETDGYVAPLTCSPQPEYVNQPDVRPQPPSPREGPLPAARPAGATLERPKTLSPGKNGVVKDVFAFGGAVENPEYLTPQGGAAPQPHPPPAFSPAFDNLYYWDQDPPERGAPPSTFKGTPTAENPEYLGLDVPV

The term IC50 denotes the concentration that gives 50% inhibition. A low value points to greater potency in that assay. For `C=CC(=O)Nc1cc2c(Nc3cccc(Cl)c3F)ncnc2cc1C#CC1(C)CCN(C)CC1` [Compound 4, N-(4-((3-chloro-2-fluorophenyl)amino)-7-((1,4-dimethylpiperidin-4-yl)ethynyl)quinazolin-6-yl)acrylamide], the IC50 in assay [1] is 100 to 500 nM; in assay [2], 50 to 100 nM; in assay [3], 100 to 500 nM; in assay [4], ≤ 50 nM.

Regarding `C=C(F)C(=O)Nc1cc2c(Nc3cccc(Cl)c3F)ncnc2cc1C#CC1(C)CCN(C)C1` (stereo not drawn) [Compound 5, N-(4-((3-chloro-2-fluorophenyl)amino)-7-((1,3-dimethylpyrrolidin-3-yl)ethynyl)quinazolin-6-yl)-2-fluoroacrylamide], the 50% inhibitory concentration (IC50) is 100 to 500 nM in assay [1], ≤ 50 nM in assay [2], 100 to 500 nM in assay [3] and ≤ 50 nM in assay [4].

For the compound `C=CC(=O)Nc1cc2c(Nc3cccc(Cl)c3F)ncnc2cc1C#C[C@@]1(C)CCCN1C` [Compound 6, (R)—N-(4-((3-chloro-2-fluorophenyl)amino)-7-((1,2-dimethylpyrrolidin-2-yl)-ethynyl)quinazolin-6-yl)acrylamide], the 50% inhibitory concentration (IC50) in assay [1] was > 500 nM; in assay [2], > 500 nM; in assay [3] it was 100 to 500 nM; in assay [4] it was 50 to 100 nM.

For `C=CC(=O)Nc1cc2c(Nc3ccc(Cl)c(Cl)c3F)ncnc2cc1C#CC1(C)CCN(C)C1` (stereo not drawn) [Compound 7, N-(4-((3,4-dichloro-2-fluorophenyl)amino)-7-((1,3-dimethylpyrrolidin-3-yl)ethynyl)quinazolin-6-yl)acrylamide], the IC50 in assay [1] was 100 to 500 nM; in assay [2], ≤ 50 nM; in assay [3], 50 to 100 nM; in assay [4], ≤ 50 nM.

In the case of `C=CC(=O)Nc1cc2c(Nc3ccc(F)c(Cl)c3F)ncnc2cc1C#CC1(C)CCN(C)C1` (stereo not drawn) [Compound 8, N-(4-((3-chloro-2,4-difluorophenyl)amino)-7-((1,3-dimethylpyrrolidin-3-yl)ethynyl)-quinazolin-6-yl)acrylamide], the IC50 in assay [1] is 100 to 500 nM; in assay [2] it was ≤ 50 nM; in assay [3] it was 50 to 100 nM; in assay [4], ≤ 50 nM.

Regarding `C=CC(=O)Nc1cc2c(Nc3cccc(Cl)c3F)ncnc2cc1C#CC12CCC(CC1)N2C` [Compound 10, N-(4-((3-chloro-2-fluorophenyl)amino)-7-((7-methyl-7-azabicyclo[2.2.1]heptan-1-yl)ethynyl)quinazolin-6-yl)acrylamide], the IC50 in assay [1] is > 500 nM; in assay [2], 100 to 500 nM; in assay [3] it was 100 to 500 nM; in assay [4], ≤ 50 nM.

As for `C=CC(=O)Nc1cc2c(Nc3cccc(Cl)c3F)ncnc2cc1C#CC1(C)CN(C)C1` [Compound 11, N-(4-((3-chloro-2-fluorophenyl)amino)-7-((1,3-dimethylazetidin-3-yl)ethynyl)quinazolin-6-yl) acrylamide], the IC50 in assay [1] is 100 to 500 nM; in assay [2], 100 to 500 nM; in assay [3], 100 to 500 nM; in assay [4] it was ≤ 50 nM.

Regarding `C=CC(=O)Nc1cc2c(Nc3ccc(OCc4ccccn4)c(Cl)c3)ncnc2cc1C#C[C@]1(C)CCN(C)C1` [Compound 13, (S)—N-(4-((3-chloro-4-(pyridin-2-ylmethoxy)phenyl)amino)-7-((1,3-dimethylpyrrolidin-3-yl)ethynyl)quinazolin-6-yl)acrylamide], the IC50 in assay [1] is ≤ 50 nM; in assay [2], 100 to 500 nM; in assay [3], ≤ 50 nM; in assay [4], ≤ 50 nM.

In the case of `C=CC(=O)Nc1cc2c(Nc3ccc(OCc4ccccn4)c(Cl)c3)ncnc2cc1C#C[C@@]1(C)CCN(C)C1` [Compound 14, (R)—N-(4-((3-chloro-4-(pyridin-2-ylmethoxy)phenyl)amino)-7-((1,3-dimethylpyrrolidin-3-yl)ethynyl)quinazolin-6-yl)acrylamide], the IC50 in assay [1] is 50 to 100 nM; in assay [2], > 500 nM; in assay [3], ≤ 50 nM; in assay [4], ≤ 50 nM.

For `C=CC(=O)Nc1cc2c(Nc3ccc(OCc4ccccn4)c(Cl)c3)ncnc2cc1C#C[C@@]1(C)CCCN1C` [Compound 16, (R)—N-(4-((3-chloro-4-(pyridin-2-ylmethoxy)phenyl)amino)-7-((1,2-dimethylpyrrolidin-2-yl)ethynyl)quinazolin-6-yl)acrylamide], the half-inhibitory concentration (IC50) in assay [1] is 100 to 500 nM; in assay [2] it was > 500 nM; in assay [3] it was ≤ 50 nM; in assay [4], 50 to 100 nM.

Regarding `C=CC(=O)Nc1cc2c(Nc3cccc(Cl)c3F)ncnc2cc1C#CC12CCN(CC1)CC2` [Compound 17, N-(4-((3-chloro-2-fluorophenyl)amino)-7-(quinuclidin-4-ylethynyl)-quinazolin-6-yl)acrylamide], the concentration for half-maximal inhibition (IC50) in assay [1] is 100 to 500 nM; in assay [2] it was ≤ 50 nM; in assay [3] it was 100 to 500 nM; in assay [4] it was ≤ 50 nM.

For the compound `CN1C[C@H]2C[C@@]2(C#Cc2cc3ncnc(Nc4cccc(Cl)c4F)c3cc2NC(=O)/C=C/CN2CCCC(C(=O)O)C2)C1` (stereo partly drawn) [Compound 19, 1-[(E)-4-[[4-(3-chloro-2-fluoro-anilino)-7-[2-[(1R,5S)-3-methyl-3-azabicyclo[3.1.0]hexan-1-yl]ethynyl]quinazolin-6-yl]amino]-4-oxo-but-2-enyl]piperidine-3-carboxylic acid], the concentration for half-maximal inhibition (IC50) in assay [1] was > 500 nM; in assay [2] it was 100 to 500 nM; in assay [3] it was 50 to 100 nM; in assay [4], > 500 nM.

In the case of `CN1C[C@H]2C[C@@]2(C#Cc2cc3ncnc(Nc4cccc(Cl)c4F)c3cc2NC(=O)/C=C/CN2C3COCC2C3)C1` [Compound 20, (E)-4-(3-oxa-6-azabicyclo[3.1.1]heptan-6-yl)-N-(4-((3-chloro-2-fluorophenyl)amino)-7-(((1R,5S)-3-methyl-3-azabicyclo[3.1.0]hexan-1-yl)ethynyl)quinazolin-6-yl)but-2-enamide], the concentration for half-maximal inhibition (IC50) was 100 to 500 nM in assay [2], ≤ 50 nM in assay [3] and ≤ 50 nM in assay [4].

Regarding `CN1C[C@H]2C[C@@]2(C#Cc2cc3ncnc(Nc4cccc(Cl)c4F)c3cc2NC(=O)C(F)Cl)C1` (stereo partly drawn) [Compound 23, 2-chloro-N-(4-((3-chloro-2-fluorophenyl)-amino)-7-(((1R,5S)-3-methyl-3-azabicyclo[3.1.0]hexan-1-yl)ethynyl)quinazolin-6-yl)-2-fluoroacetamide], the concentration for half-maximal inhibition (IC50) in assay [2] was 50 to 100 nM; in assay [3], 100 to 500 nM; in assay [4] it was > 500 nM.

On to `CN(C)C/C=C/C(=O)Nc1cc2c(Nc3cccc(Cl)c3F)ncnc2cc1C#C[C@@]1(C)CCN(C)C1` [Compound 24, (R,E)-N-(4-((3-chloro-2-fluorophenyl)amino)-7-((1,3-dimethylpyrrolidin-3-yl)ethynyl)quinazolin-6-yl)-4-(dimethylamino)but-2-enamide], for which the half-maximal inhibitory concentration (IC50) in assay [2] is > 500 nM; in assay [3], 100 to 500 nM; in assay [4] it was 50 to 100 nM.

With `CN1CC[C@](C)(C#Cc2cc3ncnc(Nc4cccc(Cl)c4F)c3cc2NC(=O)/C=C/CN2CCOCC2)C1` [Compound No. 81, (R,E)-N-(4-((3-chloro-2-fluorophenyl)amino)-7-((1,3-dimethylpyrrolidin-3-yl)ethynyl)quinazolin-6-yl)-4-morpholinobut-2-enamide], the IC50 was > 500 nM in assay [1], > 500 nM in assay [3] and 100 to 500 nM in assay [4].
